From patent US12077503B2, “Substituted cyclic amides and their use as herbicides” (FMC CORPORATION, priority 2015, dated 2024)

Experiments:
Format in all cases: in vivo
corn (Zea mays) [1] = assay: Test G Pre-Emergence Protocol; details: Zea mays, pre-emergence, 312 h, evaluated after 13 days; for plant injury at 15.625 g/ha: 15.625 g ai/ha; for plant injury at 15.625 g/ha / plant injury at 250 g/ha: read-out: Corn damage rating (100=total damage to plant; 0=no damage to plant); for plant injury at 62.5 g/ha: 62.5 g ai/ha, 100=total damage to plant, 0=no damage to plant, read-out: plant damage rating, Corn; for plant injury at 250 g/ha: 250 g ai/ha
How it was run: (§1)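 One day after sowing, pots are treated with a spray of test compound formulated in acetone/water 50:50 plus 0.5% Tween 20, giving 15.625, 62.5 or 250 g/ha. Evaluation on a 0–100 damage scale follows 13 days of glasshouse growth.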

[2] = tested on: giant foxtail (Setaria faberi); assay: Test G Pre-Emergence Protocol; details: Setaria faberi, pre-emergence, 312 h, evaluated after 13 days; for pest or weed control at 15.625 g/ha: 15.625 g ai/ha; for pest or weed control at 15.625 g/ha / pest or weed control at 250 g/ha: read-out: Foxtail, Giant damage rating (100=total damage to plant; 0=no damage to plant); for pest or weed control at 62.5 g/ha: 62.5 g ai/ha, 100=total damage to plant, 0=no damage to plant, read-out: plant damage rating, Foxtail, Giant; for pest or weed control at 250 g/ha: 250 g ai/ha
How it was run: as §1

[3] = tested on: barnyardgrass (Echinochloa crus-galli); assay: Test G Pre-Emergence Protocol; details: Echinochloa crus-galli, pre-emergence, 312 h, evaluated after 13 days; for pest or weed control at 15.625 g/ha: 15.625 g ai/ha, read-out: Barnyard grass damage rating (100=total damage to plant; 0=no damage to plant); for pest or weed control at 62.5 g/ha: 62.5 g ai/ha, 100=total damage to plant, 0=no damage to plant, read-out: plant damage rating, Barnyardgrass; for pest or weed control at 250 g/ha: 250 g ai/ha, read-out: Barnyardgrass damage rating (100=total damage to plant; 0=no damage to plant)
How it was run: as §1

[4] = tested on: ivy-leaved morning glory (Ipomoea hederacea); assay: Test G Pre-Emergence Protocol; details: Ipomoea, pre-emergence, 312 h, evaluated after 13 days; for pest or weed control at 15.625 g/ha: 15.625 g ai/ha, read-out: Morning-glory, Ivy-leaved damage rating (100=total damage to plant; 0=no damage to plant); for pest or weed control at 62.5 g/ha: 62.5 g ai/ha, 100=total damage to plant, 0=no damage to plant, read-out: plant damage rating, Morningglory, Ivy-leaved; for pest or weed control at 250 g/ha: 250 g ai/ha, read-out: Morningglory, Ivy-leaved damage rating (100=total damage to plant; 0=no damage to plant)
How it was run: as §1

[5] = tested on: velvetleaf (Abutilon theophrasti); assay: Test G Pre-Emergence Protocol; details: Abutilon theophrasti, pre-emergence, 312 h, evaluated after 13 days; for pest or weed control at 15.625 g/ha: 15.625 g ai/ha; for pest or weed control at 15.625 g/ha / pest or weed control at 250 g/ha: read-out: Velvetleaf damage rating (100=total damage to plant; 0=no damage to plant); for pest or weed control at 62.5 g/ha: 62.5 g ai/ha, 100=total damage to plant, 0=no damage to plant, read-out: plant damage rating, Velvetleaf; for pest or weed control at 250 g/ha: 250 g ai/ha
How it was run: as §1

[6] = tested on: redroot pigweed (Amaranthus retroflexus); assay: Test G Pre-Emergence Protocol; details: Amaranthus retroflexus, pre-emergence, 312 h, evaluated after 13 days; for pest or weed control at 15.625 g/ha: 15.625 g ai/ha; for pest or weed control at 15.625 g/ha / pest or weed control at 250 g/ha: read-out: Pigweed, Redroot damage rating (100=total damage to plant; 0=no damage to plant); for pest or weed control at 62.5 g/ha: 62.5 g ai/ha, 100=total damage to plant, 0=no damage to plant, read-out: plant damage rating, Pigweed, Redroot; for pest or weed control at 250 g/ha: 250 g ai/ha
How it was run: as §1

corn (Zea mays) [7] = assay: Test G Post-Emergence Protocol; details: Zea mays, post-emergence, 312 h; for plant injury at 15.625 g/ha: 15.625 g ai/ha, evaluated after 13 days (100=total damage to plant; 0=no damage to plant), read-out: Corn damage rating; for plant injury at 62.5 g/ha: 62.5 g ai/ha, read-out: Corn damage rating (100=total damage to plant; 0=no damage to plant); for plant injury at 62.5 g/ha / plant injury at 250 g/ha: evaluated after 13 days; for plant injury at 250 g/ha: 250 g ai/ha, read-out: damage to plant, Corn (100=total damage to plant; 0=no damage to plant)
How it was run: (§2)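 Foliar application was made 8 days after sowing, using an aqueous spray of the active in acetone/water (50:50) with 0.5% Tween 20, at doses of 15.625, 62.5 or 250 g/ha. Injury was assessed 13 days later, where 100 meant the plant was fully damaged.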

[8] = tested on: giant foxtail (Setaria faberi); assay: Test G Post-Emergence Protocol; details: Setaria faberi, post-emergence, 312 h; for pest or weed control at 15.625 g/ha: 15.625 g ai/ha, evaluated after 13 days (100=total damage to plant; 0=no damage to plant), read-out: Foxtail, Giant damage rating; for pest or weed control at 62.5 g/ha: 62.5 g ai/ha, read-out: Foxtail, Giant damage rating (100=total damage to plant; 0=no damage to plant); for pest or weed control at 62.5 g/ha / pest or weed control at 250 g/ha: evaluated after 13 days; for pest or weed control at 250 g/ha: 250 g ai/ha, read-out: damage to plant, Foxtail, Giant (100=total damage to plant; 0=no damage to plant)
How it was run: as §2

[9] = tested on: barnyardgrass (Echinochloa crus-galli); assay: Test G Post-Emergence Protocol; details: Echinochloa crus-galli, post-emergence, 312 h; for pest or weed control at 15.625 g/ha: 15.625 g ai/ha, evaluated after 13 days (100=total damage to plant; 0=no damage to plant), read-out: Barnyardgrass damage rating; for pest or weed control at 62.5 g/ha: 62.5 g ai/ha, read-out: Barnyardgrass damage rating (100=total damage to plant; 0=no damage to plant); for pest or weed control at 62.5 g/ha / pest or weed control at 250 g/ha: evaluated after 13 days; for pest or weed control at 250 g/ha: 250 g ai/ha, read-out: damage to plant, Barnyardgrass (100=total damage to plant; 0=no damage to plant)
How it was run: as §2

[10] = tested on: ivy-leaved morning glory (Ipomoea hederacea); assay: Test G Post-Emergence Protocol; details: Ipomoea, post-emergence, 312 h; for pest or weed control at 15.625 g/ha: 15.625 g ai/ha, evaluated after 13 days (100=total damage to plant; 0=no damage to plant), read-out: Morningglory, Ivy-leaved damage rating; for pest or weed control at 62.5 g/ha: 62.5 g ai/ha, read-out: Morningglory, Ivy-leaved damage rating (100=total damage to plant; 0=no damage to plant); for pest or weed control at 62.5 g/ha / pest or weed control at 250 g/ha: evaluated after 13 days; for pest or weed control at 250 g/ha: 250 g ai/ha, read-out: damage to plant, Morningglory, Ivy-leaved (100=total damage to plant; 0=no damage to plant)
How it was run: as §2

[11] = tested on: velvetleaf (Abutilon theophrasti); assay: Test G Post-Emergence Protocol; details: Abutilon theophrasti, post-emergence, 312 h; for pest or weed control at 15.625 g/ha: 15.625 g ai/ha, evaluated after 13 days (100=total damage to plant; 0=no damage to plant), read-out: Velvetleaf damage rating; for pest or weed control at 62.5 g/ha: 62.5 g ai/ha, read-out: Velvetleaf damage rating (100=total damage to plant; 0=no damage to plant); for pest or weed control at 62.5 g/ha / pest or weed control at 250 g/ha: evaluated after 13 days; for pest or weed control at 250 g/ha: 250 g ai/ha, read-out: damage to plant, Velvetleaf (100=total damage to plant; 0=no damage to plant)
How it was run: as §2

[12] = tested on: redroot pigweed (Amaranthus retroflexus); assay: Test G Post-Emergence Protocol; details: Amaranthus retroflexus, post-emergence, 312 h; for pest or weed control at 15.625 g/ha: 15.625 g ai/ha, evaluated after 13 days (100=total damage to plant; 0=no damage to plant), read-out: Pigweed, Redroot damage rating; for pest or weed control at 62.5 g/ha: 62.5 g ai/ha, read-out: Pigweed, Redroot damage rating (100=total damage to plant; 0=no damage to plant); for pest or weed control at 62.5 g/ha / pest or weed control at 250 g/ha: evaluated after 13 days; for pest or weed control at 250 g/ha: 250 g ai/ha, read-out: damage to plant, Pigweed, Redroot (100=total damage to plant; 0=no damage to plant)
How it was run: as §2

SMILES | plant injury at 15.625 g/ha (corn (Zea mays) [1]) [%] | plant injury at 62.5 g/ha (corn (Zea mays) [1]) [%] | plant injury at 250 g/ha (corn (Zea mays) [1]) [%] | pest or weed control at 15.625 g/ha [2] [%] | pest or weed control at 62.5 g/ha [2] [%] | pest or weed control at 250 g/ha [2] [%] | pest or weed control at 15.625 g/ha [3] [%] | pest or weed control at 62.5 g/ha [3] [%] | pest or weed control at 250 g/ha [3] [%] | pest or weed control at 15.625 g/ha [4] [%] | pest or weed control at 62.5 g/ha [4] [%] | pest or weed control at 250 g/ha [4] [%] | pest or weed control at 15.625 g/ha [5] [%] | pest or weed control at 62.5 g/ha [5] [%] | pest or weed control at 250 g/ha [5] [%] | pest or weed control at 15.625 g/ha [6] [%] | pest or weed control at 62.5 g/ha [6] [%] | pest or weed control at 250 g/ha [6] [%] | plant injury at 15.625 g/ha (corn (Zea mays) [7]) [%] | plant injury at 62.5 g/ha (corn (Zea mays) [7]) [%] | also measured
COc1ccc(CNC(=O)[C@H]2C(=O)N(C)C[C@@H]2c2ccc(C(F)(F)F)cc2)c(OC)c1 (racemic) [Compound 1479] | 0 | 0 | 0 | 0 | 20 | 20 | 0 | 0 | 10 | 0 | 0 | 0 | 0 | 0 | 10 | 0 | 0 | 0 | 10 | 10 | plant injury at 250 g/ha (corn (Zea mays) [7]): 10%; pest or weed control at 15.625 g/ha [8]: 0%; pest or weed control at 62.5 g/ha [8]: 20%; pest or weed control at 250 g/ha [8]: 0%; pest or weed control at 15.625 g/ha [9]: 0%; pest or weed control at 62.5 g/ha [9]: 20%; pest or weed control at 250 g/ha [9]: 20%; pest or weed control at 15.625 g/ha [10]: 0%; pest or weed control at 62.5 g/ha [10]: 0%; pest or weed control at 250 g/ha [10]: 0%; pest or weed control at 15.625 g/ha [11]: 0%; pest or weed control at 62.5 g/ha [11]: 0%; pest or weed control at 250 g/ha [11]: 0%; pest or weed control at 15.625 g/ha [12]: 0%; pest or weed control at 62.5 g/ha [12]: 0%; pest or weed control at 250 g/ha [12]: 20%
COc1cc([C@@H]2CN(C)C(=O)[C@H]2C(=O)Nc2cccc(F)c2F)ccn1 (racemic) [Compound 1480] | 20 | 30 | 80 | 40 | 90 | 90 | 30 | 80 | 90 | 0 | 0 | 70 | 0 | 0 | 10 | 0 | 0 | 40 | 20 | 20 | plant injury at 250 g/ha (corn (Zea mays) [7]): 60%; pest or weed control at 15.625 g/ha [8]: 60%; pest or weed control at 62.5 g/ha [8]: 70%; pest or weed control at 250 g/ha [8]: 70%; pest or weed control at 15.625 g/ha [9]: 50%; pest or weed control at 62.5 g/ha [9]: 70%; pest or weed control at 250 g/ha [9]: 80%; pest or weed control at 15.625 g/ha [10]: 0%; pest or weed control at 62.5 g/ha [10]: 0%; pest or weed control at 250 g/ha [10]: 20%; pest or weed control at 15.625 g/ha [11]: 0%; pest or weed control at 62.5 g/ha [11]: 0%; pest or weed control at 250 g/ha [11]: 20%; pest or weed control at 15.625 g/ha [12]: 0%; pest or weed control at 62.5 g/ha [12]: 0%; pest or weed control at 250 g/ha [12]: 10%
Cc1cc([C@@H]2CN(C)C(=O)[C@H]2C(=O)Nc2cccc(F)c2F)cc(Cl)n1 (racemic) [Compound 1481] | 30 | 30 | 60 | 40 | 60 | 90 | 20 | 40 | 80 | 0 | 0 | 10 | 0 | 0 | 10 | 0 | 0 | 20 | 20 | 20 | plant injury at 250 g/ha (corn (Zea mays) [7]): 60%; pest or weed control at 15.625 g/ha [8]: 40%; pest or weed control at 62.5 g/ha [8]: 60%; pest or weed control at 250 g/ha [8]: 70%; pest or weed control at 15.625 g/ha [9]: 30%; pest or weed control at 62.5 g/ha [9]: 60%; pest or weed control at 250 g/ha [9]: 70%; pest or weed control at 15.625 g/ha [10]: 0%; pest or weed control at 62.5 g/ha [10]: 10%; pest or weed control at 250 g/ha [10]: 80%; pest or weed control at 15.625 g/ha [11]: 0%; pest or weed control at 62.5 g/ha [11]: 0%; pest or weed control at 250 g/ha [11]: 10%; pest or weed control at 15.625 g/ha [12]: 0%; pest or weed control at 62.5 g/ha [12]: 0%; pest or weed control at 250 g/ha [12]: 20%
